From patent US20220274947A1, “NOVEL HETEROARYL-TRIAZOLE COMPOUNDS AS PESTICIDES” (Bayer Aktiengesellschaft, priority 2019, published 2022)

What was measured:
Format in all cases: in vivo
[1] = test system: Ctenocephalides felis; assay: Ctenocephalides felis in-vitro contact test, adult cat flea (CTECFE Cont); details: application rate 5 μg/cm^2 (=500 g/ha), adult cat fleas, after 48 hours, read-out: activity (efficacy: 100% means all fleas are dead or moribund)
How it was run: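 Efficacy, as percent of fleas dead or moribund, was scored 48 h after adults (5-10 per tube) were placed in glass tubes whose walls carried dried compound at 5 μg/cm^2 (900 ppm solution). Moribund meant failing to climb away from a 45-50° C. hot plate within 5 min.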

[2] = test system: Myzus persicae; assay: Myzus persicae oral test; details: 120 h, read-out: activity (mortality)
How it was run: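 Percent mortality was recorded at day 5, where 0% means no aphids killed. Compound prepared from an acetone concentrate diluted in water and combined with IPL41 medium containing sugar was offered to mixed-stage green peach aphids, which sucked it through a parafilm seal.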

[3] = test system: Myzus persicae; assay: Myzus persicae spray test; details: in Brassica rapa, foliar, 120 h; for mortality at 100 g/ha: read-out: activity (mortality), application rate 100 g/ha, spray, Chinese cabbage leaf disks, after 5 days; for mortality at 500 g/ha: read-out: activity (mortality), application rate 500 g/ha, spray, Chinese cabbage leaf disks, after 5 days
Protocol: Myzus persicae—Spray Test Solvent: 78.0 parts by weight acetone • 1.5 parts by weight dimethylformamide Emulsifier: alkylarylpolyglycol ether To produce a suitable preparation of active compound, 1 part by weight of active compound is mixed with the stated amount of solvents and is diluted with water, containing an emulsifier concentration of 1000 ppm, to the desired concentration. Further test concentrations are prepared by dilution with emulsifier containing water.
Chinese cabbage (Brassica pekinensis) leaf disks infected with all instars of the green peach aphid (Myzus persicae), are sprayed with a preparation of the active ingredient of the desired concentration.
After 5 days mortality in % is determined. 100% means all aphids have been killed and 0% means none of the aphids have been killed.

[4] = test system: Rhipicephalus microplus; assay: Rhipicephalus (Boophilus) microplus in-vitro contact test, larval cattle tick, strain Parkhurst (BOOPMI Cont); details: application rate 5 μg/cm^2 (=500 g/ha), tick larvae, after 48 hours, read-out: activity (efficacy: 100% means all larvae are dead or moribund)
How it was run: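 After 48 h at 27° C. and 85% humidity, percent dead or moribund larvae was scored from negative geotactic behaviour. Larvae (20-50, Parkhurst strain, synthetic pyrethroid-resistant) were exposed in tubes coated with compound from acetone, 900 ppm corresponding to 5 μg/cm^2.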

[5] = test system: Diabrotica balteata; assay: Diabrotica balteata spray test; details: 168 h, wheat seeds, larvae, after 7 days, read-out: activity (efficacy: 100% means all seedlings have grown up like in the untreated, uninfected control); for pest or weed control at 32 µg/disc, 100 g/ha: application rate 100 g/ha (=32 μg/well); for pest or weed control at 160 µg/disc, 500 g/ha: application rate 500 g/ha (=160 μg/well)
How it was run: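 Efficacy (%) was scored 7 days after spraying, with 100% meaning growth like the untreated, uninfected control and 0% meaning no seedling grew. Spray solutions of compound in acetone/DMF with emulsifier-containing water went onto 1-day-germinated wheat seeds, and each unit was then infested with 10-20 banded cucumber beetle larvae.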

[6] = test system: Nezara viridula; assay: Nezara viridula spray test; details: in Hordeum vulgare, 96 h, barley plants, larvae, after 4 days; for mortality at 100 g/ha: application rate 100 g/ha; for mortality at 500 g/ha: application rate 500 g/ha
Protocol: Nezara viridula—Spray Test Solvent: 78.0 parts by weight of acetone • • 1.5 parts by weight of dimethylformamide Emulsifier: alkylarylpolyglycol ether
To produce a suitable preparation of active compound, 1 part by weight of active compound is mixed with the stated amount of solvent, and the concentrate is diluted with water, containing an emulsifier concentration of 1000 ppm, to the desired concentration. Further test concentrations are prepared by dilution with emulsifier containing water.
Barley plants (Hordeum vulgare) infested with larvae of the southern green stink bug (Nezara viridula) are sprayed with a test solution containing the desired concentration of the active ingredient.
After 4 days mortality in % is determined. 100% means all the stink bugs have been killed; 0% means none of the stink bugs have been killed.

[7] = test system: Spodoptera frugiperda; assay: Spodoptera frugiperda spray test; details: in Zea mays, 168 h, read-out: activity (mortality)
How it was run: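 Percent kill of fall armyworm caterpillars was assessed 7 days after infesting dried, treated maize leaf sections. Treatment was a spray of compound in acetone/dimethylformamide, diluted with water containing emulsifier at 1000 ppm.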

[8] = test system: Rhipicephalus sanguineus; assay: Rhipicephalus sanguineus in-vitro contact test, adult brown dog ticks (RHIPSA Cont); details: 48 h, after 48 hours, read-out: activity (efficacy: 100% means all ticks are dead or moribund); for pest or weed control at 5 µg/cm2, 500 g/ha: application rate 5 μg/cm^2 (=500 g/ha); for pest or weed control at 1 µg/cm2, 100 g/ha: application rate 1 μg/cm^2 (=100 g/ha)
How it was run: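 Compound in acetone (9 mg/mL stock, diluted to test concentration) is coated onto inner walls of glass tubes by rotation for 2 h at 30 rpm. Efficacy is read after 48 h: ticks are tapped down and held on a 45-50° C plate for at most 5 min, and immotile or uncoordinated ones that fail to climb away count as dead or moribund.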

[9] = test system: Aedes aegypti strain MONHEIM; assay: Aedes aegypti test (AEDSAE surface treatment & contact assay); details: surface concentration 20 mg/m^2, glazed tile, exposure 30 minutes, 24 hours after contact, read-out: efficacy (mortality)
How it was run: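 Compound dissolved in acetone (2 mg/ml) with 2000 ppm rapeseed oil methyl ester, pipetted onto glazed tile and dried. Adult mosquitoes exposed on the surface for 30 min; percent mortality scored 24 h after contact.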

[10] = test system: Rhipicephalus microplus; assay: Rhipicephalus (Boophilus) microplus injection test (BOOPMI Inj); details: 168 h, injection into adult engorged female ticks, egg deposition after 7 days, read-out: activity (efficacy: 100% means all eggs are infertile); for pest or weed control at 0.004 mg: application rate 4 μg/tick; for pest or weed control at 0.02 mg: application rate 20 μg/tick
How it was run: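 Compound in DMSO, 1 μL, injected abdominally into five adult engorged females, which were then held in a climate chamber. Read-out is egg fertility, scored from deposition at 7 days, with unclear eggs followed to hatching (~42 days); 0% means all eggs fertile, 100% all infertile.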

[11] = test system: Musca domestica strain WHO—N; assay: Musca domestica test (MUSCDO surface treatment & contact assay); details: exposure 30 minutes, 24 hours after contact, read-out: efficacy (mortality)
How it was run: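 Compound dissolved in acetone (2 mg/ml) with 2000 ppm rapeseed oil methyl ester and pipetted onto glazed tile; after acetone evaporation, adult flies exposed to dried surface for 30 minutes. Mortality (%) scored 24 hours after contact.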

[12] = test system: Ctenocephalides felis; assay: Ctenocephalides felis oral test (CTECFE Oral); details: 48 h, read-out: activity (mortality)
How it was run: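 Percent mortality was recorded 2 days after roughly 20 adult Ctenocephalides felis fed on treated cattle blood. The blood was warmed to 37 °C beneath a parafilm membrane, with the fleas kept at room temperature. Compound was dissolved in DMSO and diluted into the blood to test concentration.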

SMILES	pest or weed control at 5 µg/cm2 [1] [%]	mortality at 0.8 ppm [2] [%]	mortality at 4 ppm [2] [%]	mortality at 100 g/ha [3] [%]	pest or weed control at 5 µg/cm2 [4] [%]	pest or weed control at 32 µg/disc, 100 g/ha [5] [%]	mortality at 100 g/ha [6] [%]	mortality at 500 g/ha [6] [%]	mortality at 100 g/ha [7] [%]	pest or weed control at 5 µg/cm2, 500 g/ha [8] [%]	mortality at 500 g/ha [3] [%]	pest or weed control at 160 µg/disc, 500 g/ha [5] [%]	mortality at 20 mg/m2 [9] [%]	pest or weed control at 0.004 mg [10] [%]	pest or weed control at 0.02 mg [10] [%]	mortality at 4 mg/m2 ([11]; surface concentration 4 mg/m^2, glazed tile) [%]	mortality at 20 mg/m2 ([11]; surface concentration 20 mg/m^2, glazed tile) [%]	mortality at 500 g/ha [7] [%]	pest or weed control at 1 µg/cm2, 100 g/ha [8] [%]	mortality at 100 ppm [12] [%]
COc1nc([C@H](C)NC(=O)c2cc(OC(F)F)cc(OC(F)F)c2)n(-c2ccc(C#N)cn2)n1 [I-64]	90	100	100	90	100	100	90	100	100	80										
C[C@H](NC(=O)c1cc(C(F)(F)F)cc(C(F)(F)F)c1)c1ncnn1-c1ncc(I)s1 [II-39]					100	100		90	100	100	100	100	80 to 100	100	100	80 to 100	80 to 100	100	100	
CC(C)CN(C)C(=O)c1ccc(-n2ncnc2[C@H](C)NC(=O)c2cc(Cl)cc(C(F)(F)F)c2)nc1 [II-71]	100		90	90	100	100		100		100	90	100		100	100			100		
Cc1nc([C@H](C)NC(=O)c2cc(C(F)(F)F)cc(C(F)(F)F)c2)n(-c2ccc(C(=O)N(C)CC3CC3)cn2)n1 [II-91]	100	100	100	100	100	100	100		100	100				100					100	100
Cc1nc([C@H](C)NC(=O)c2cc(C(F)(F)F)cc(C(F)(F)F)c2)n(-c2ccc(C(=O)N(C)C(C)C)cn2)n1 [II-92]	100		100	90	100		90		100	100				100					100	
Cc1nc([C@H](C)NC(=O)c2cc(C(F)(F)F)cc(C(F)(F)F)c2)n(-c2ccc(C(=O)N(C)CC(F)(F)F)cn2)n1 [II-93]	90		100	90	100	100	100		100	100				100					100	90
Cc1nc([C@H](C)NC(=O)c2cc(C(F)(F)F)cc(C(F)(F)F)c2)n(-c2ccc(C(=O)N(C)CC(C)C)cn2)n1 [II-94]	100		100	90	100	100	100			100				100					100	90
Cc1nc([C@H](C)NC(=O)c2cc(C(F)(F)F)cc(C(F)(F)F)c2)n(-c2ccc(C(=O)N(C)C)cn2)n1 [II-100]	100	100	100	100	100		100		100	100				100					100	
CCSc1cc(C#N)cc(C(=O)N[C@@H](C)c2ncnn2-c2ccc(C#N)cn2)c1 [II-109]	100	90	100	90	100	100	100			100				100					100	
Cc1nc([C@H](C)NC(=O)c2cc(C(F)F)cc(C(F)F)c2)n(-c2ccc(C#N)cn2)n1 [II-114]	100	100	100	90	100	100	100		83	100									100	
Cc1nc([C@H](C)NC(=O)c2cc(OC(F)F)cc(OC(F)F)c2)n(-c2ccc(C#N)cn2)n1 [II-115]	90	100	100	90	100	100	100		100	100										
